For assay [1], the target named is T1, TRPC5 (Homo sapiens, UniProt Q9UL62).
T1 construct: expressed in transfected cells; host or cells: HEK 293
T1 sequence (Q9UL62 1-973): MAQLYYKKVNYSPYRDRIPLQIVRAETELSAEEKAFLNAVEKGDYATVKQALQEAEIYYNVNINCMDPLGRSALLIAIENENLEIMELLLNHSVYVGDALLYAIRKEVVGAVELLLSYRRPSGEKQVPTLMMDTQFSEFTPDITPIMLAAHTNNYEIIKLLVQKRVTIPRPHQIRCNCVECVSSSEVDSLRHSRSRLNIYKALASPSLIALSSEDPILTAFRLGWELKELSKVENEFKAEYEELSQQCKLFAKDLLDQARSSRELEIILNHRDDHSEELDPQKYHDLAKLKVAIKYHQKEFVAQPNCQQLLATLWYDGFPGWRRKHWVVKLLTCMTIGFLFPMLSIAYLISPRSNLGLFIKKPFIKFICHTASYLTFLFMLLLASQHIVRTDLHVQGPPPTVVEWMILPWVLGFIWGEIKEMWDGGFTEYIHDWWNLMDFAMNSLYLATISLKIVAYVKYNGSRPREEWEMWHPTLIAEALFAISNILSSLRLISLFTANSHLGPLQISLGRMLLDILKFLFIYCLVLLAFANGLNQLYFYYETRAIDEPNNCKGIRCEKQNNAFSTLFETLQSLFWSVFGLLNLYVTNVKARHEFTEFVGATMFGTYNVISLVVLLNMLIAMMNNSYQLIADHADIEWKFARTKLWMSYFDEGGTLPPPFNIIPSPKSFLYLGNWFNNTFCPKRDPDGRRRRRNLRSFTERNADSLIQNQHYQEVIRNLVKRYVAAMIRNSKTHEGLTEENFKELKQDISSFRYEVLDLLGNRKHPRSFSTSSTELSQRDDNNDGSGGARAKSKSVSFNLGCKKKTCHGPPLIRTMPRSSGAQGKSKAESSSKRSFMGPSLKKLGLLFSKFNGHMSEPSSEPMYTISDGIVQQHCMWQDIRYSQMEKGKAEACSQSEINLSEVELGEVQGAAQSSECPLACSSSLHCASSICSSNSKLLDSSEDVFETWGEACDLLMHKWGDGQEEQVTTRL
The assay is described as follows: TRPC5 fluorescence assay, membrane potential dye, flexstation (FLEX). In kind it is cell-based. The note with it: Table 6; HEK293 cells overexpressing TRPC5. As to the method:
HEK 293 cells expressing human TRPC5 cells were trypsinised, counted and seeded in black, clear-bottomed 96-well plates at a density of 50,000 cells per well and incubated overnight. Next day, the cells were loaded with membrane potential dye. Dye solution was made up according to the manufacturer's instructions in HEPES buffered Hank's balanced salt solution (HBSS). Dye solution (10 μL) was added to the wells and incubated at 37° C. for 1 hour. The test compounds and standard inhibitors were added to the wells and incubated at room temperature for 10 minutes. The plates were then placed in the flexstation and fluorescence monitored every 1.52 seconds. After 20 seconds, 10 μL of the appropriate standard agonist was added and the fluorescence monitored for 2 minutes at ex/emm: 530 nm/565 nm.

In assay [2] the target is T1, TRPC5. The assay is described as follows: TRPC5 automated patch clamp assay (Qpatch), current block after rosiglitazone stimulation. It counts as cell-based. The conditions noted are these: Table 6; HEK293 cells overexpressing TRPC5; read-out: TRPC5-QPatch IC50. Summed up: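 Currents were elicited by 300 ms voltage ramps (−100 to +100 mV, every 10 s, holding −60 mV) in human TRPC5-expressing HEK 293 cells on automated patch clamp, with Rosiglitazone (30 uM) activating the channel. Internal Ca2+ buffered to 1 μM; Hill-equation fitting gave IC50.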

On to `O=c1[nH]ncc(N2CCc3c(ncn3Cc3ccncc3C(F)(F)F)C2)c1Cl`, for which the results for the IC50 against TRPC5 [1] and at TRPC5 [2] were 0.01 to 1000 nM and 1000 to 5000 nM, respectively.

For the compound `C[C@H](c1ccccc1)n1cnc2c1CCN(c1cn[nH]c(=O)c1Cl)C2` [drawing 842], the IC50 on TRPC5 [1] fell in the range of 0.01 to 1000 nM; at TRPC5 [2] it was 1000 to 5000 nM. Turning to `O=c1[nH]ncc(N2CCc3c(nnn3Cc3ccccc3C(F)F)C2)c1Cl`, the IC50 on TRPC5 [1] and on TRPC5 [2] was 0.01 to 1000 nM each time.

For the compound `O=c1[nH]ncc(N2CCc3c(ncn3Cc3ncccc3C(F)(F)F)C2)c1Cl`, the values for the IC50 at TRPC5 [1] and at TRPC5 [2] were 0.01 to 1000 nM and 1000 to 5000 nM, respectively. `Cc1ccccc1Cn1cnc2c1CCN(c1cn[nH]c(=O)c1Cl)C2` [drawing 840]: the IC50 at TRPC5 [1] and at TRPC5 [2] was 0.01 to 1000 nM each time. Take `O=c1[nH]ncc(N2CCc3c(ncn3Cc3ccc(F)nc3C(F)(F)F)C2)c1Cl`: the values for the concentration for half-maximal inhibition (IC50) at TRPC5 [1] and at TRPC5 [2] were 1000 to 5000 nM and 0.01 to 1000 nM, respectively. Consider `O=c1[nH]ncc(N2CCc3c(ncn3Cc3ccc(F)cc3C(F)F)C2)c1Cl` [drawing 892], for which the IC50 against TRPC5 [1] and at TRPC5 [2] was 0.01 to 1000 nM throughout.

On to `O=c1[nH]ncc(N2CCc3c(cnn3-c3ccccc3OC(F)(F)F)C2)c1Cl`, for which the IC50 was in the range of 0.01 to 1000 nM against TRPC5 [1] and 1000 to 5000 nM on TRPC5 [2]. For the compound `O=c1[nH]ncc(N2CCc3c(cnn3Cc3ccccc3C(F)(F)F)C2)c1Cl`, the IC50 at TRPC5 [1] and at TRPC5 [2] was 0.01 to 1000 nM in each case. `O=c1[nH]ncc(N2CCc3c(ncn3Cc3ccccc3C(F)(F)F)C2)c1Br` [drawing 862]: the IC50 against TRPC5 [1] and at TRPC5 [2] was 0.01 to 1000 nM in each case. `O=c1[nH]ncc(N2CCc3nn(-c4ccccc4C(F)(F)F)cc3C2)c1Cl`: the IC50 at TRPC5 [1] is 0.01 to 1000 nM; on TRPC5 [2], 10000 to 500000 nM. For `O=c1[nH]ncc(N2CCc3c(ncn3-c3cccc(C(F)(F)F)c3)C2)c1Cl` the same measures were 0.01 to 1000 nM and 1000 to 5000 nM. `CC[C@@H](c1cncc(F)c1)n1cnc2c1CCN(c1cn[nH]c(=O)c1Cl)C2`: the IC50 against TRPC5 [1] was in the range of 0.01 to 1000 nM; on TRPC5 [2] it was 5000 to 10000 nM. Consider `O=c1[nH]ncc(N2CCc3ncn(Cc4ccc(C(F)(F)F)cc4)c3C2)c1Cl`, for which the half-inhibitory concentration (IC50) was in the range of 1000 to 5000 nM at TRPC5 [1] and 10000 to 500000 nM on TRPC5 [2].

As to `O=c1[nH]ncc(N2CCc3c(ncn3Cc3ccc(C(F)(F)F)nc3)C2)c1Cl`, the IC50 at TRPC5 [1] and on TRPC5 [2] was 10000 to 500000 nM throughout. For the compound `Cc1ccccc1-n1cnc2c1CCN(c1cn[nH]c(=O)c1Cl)C2`, the IC50 against TRPC5 [1] is 10000 to 500000 nM; on TRPC5 [2], 1000 to 5000 nM. In the case of `N#Cc1ccccc1-n1cnc2c1CN(c1cn[nH]c(=O)c1C#N)CC2` [drawing 841], the IC50 against TRPC5 [1] fell in the range of 0.01 to 1000 nM; at TRPC5 [2], 1000 to 5000 nM. For the compound `O=c1[nH]ncc(N2CCc3c(ncn3Cc3ccccc3C(F)(F)F)C2)c1Cl` [drawing 850], the IC50 at TRPC5 [1] and at TRPC5 [2] was 0.01 to 1000 nM each time.

Consider `CCc1cccnc1Cn1cnc2c1CCN(c1cn[nH]c(=O)c1Cl)C2`, for which the values for the IC50 against TRPC5 [1] and at TRPC5 [2] were 0.01 to 1000 nM and 1000 to 5000 nM, respectively. Take `N#Cc1c(N2CCc3c(ncn3Cc3ccccc3C(F)F)C2)cn[nH]c1=O`: the IC50 against TRPC5 [1] was in the range of 0.01 to 1000 nM; on TRPC5 [2], 1000 to 5000 nM. With `CCc1ncccc1Cn1nnc2c1CCN(c1cn[nH]c(=O)c1Cl)C2`, the IC50 lay in the range of 0.01 to 1000 nM at TRPC5 [1] and 1000 to 5000 nM on TRPC5 [2]. `O=c1[nH]ncc(N2CCc3c(ncn3Cc3ccccc3C(F)(F)F)C2)c1Br` [drawing 838]: the IC50 on TRPC5 [1] lay in the range of 0.01 to 1000 nM; at TRPC5 [2], 1000 to 5000 nM. In the case of `O=c1[nH]ncc(N2CCc3ncn(-c4ccccc4C(F)(F)F)c3C2)c1Cl` [drawing 847], the IC50 lay in the range of 10000 to 500000 nM against TRPC5 [1] and 5000 to 10000 nM at TRPC5 [2]. Consider `O=c1[nH]ncc(N2CCc3c(ncn3Cc3cccnc3C(F)(F)F)C2)c1Cl`, for which the IC50 on TRPC5 [1] and at TRPC5 [2] was 1000 to 5000 nM throughout.

`N#Cc1c(N2CCc3c(ncn3Cc3cncc(F)c3)C2)cn[nH]c1=O` had an IC50 on TRPC5 [1] of 0.01 to 1000 nM.

With `O=c1[nH]ncc(N2CCc3c(cnn3Cc3ccc(F)cc3C(F)(F)F)C2)c1Cl` [drawing 907], on TRPC5 [1], the IC50 was in the range of 0.01 to 1000 nM. As for `N#Cc1c(N2CCc3ncn(Cc4cncc(F)c4)c3C2)cn[nH]c1=O`, on TRPC5 [1], the IC50 is 1000 to 5000 nM.

One may read the IC50 as the concentration that gives 50% inhibition.

Values taken from patent US20260184708A1, “PYRIDAZINONES AND METHODS OF USE THEREOF” (GFB (ABC), LLC, priority 2017, published 2026).
